In article PMC7265341, “Quantifying CDK inhibitor selectivity in live cells” (Nature Communications, 2020):
Like-named read-outs stand apart in the source and are kept apart here.

Experiments:
CDK15/Cyclin Y = CDK15/Cyclin Y (Homo sapiens, UniProt Q96Q40); assay: NanoBRET live-cell target engagement, NanoLuc-CDK15/Cyclin Y in HEK-293; format: binding; conditions: CDK15/Y, read-out: Inhibition at 10µM (%)
CDK7 = CDK7 (Homo sapiens, UniProt P50613); assay: NanoBRET live-cell target engagement, NanoLuc-CDK7 in HEK-293; format: binding; conditions: CDK7, read-out: Inhibition at 10µM (%)
CDK4/Cyclin D1 = CDK4/Cyclin D1 (Homo sapiens, UniProt P11802); assay: NanoBRET live-cell target engagement, NanoLuc-CDK4/Cyclin D1 in HEK-293; format: binding; conditions: CDK4/D1, read-out: Inhibition at 10µM (%)
CDK2/Cyclin E1 = CDK2/Cyclin E1 (Homo sapiens, UniProt P24941); assay: NanoBRET live-cell target engagement, CDK2-NanoLuc/Cyclin E1 in HEK-293; format: binding; conditions: CDK2/E1, read-out: Inhibition at 10µM (%)
CDK11B/Cyclin L2 = CDK11B/Cyclin L2 (Homo sapiens, UniProt P21127); assay: NanoBRET live-cell target engagement, CDK11B-NanoLuc/Cyclin L2 in HEK-293; format: binding; conditions: CDK11b/L2, read-out: Inhibition at 10µM (%)
CDK16/Cyclin Y = CDK16/Cyclin Y (Homo sapiens, UniProt Q00536); assay: NanoBRET live-cell target engagement, CDK16-NanoLuc/Cyclin Y in HEK-293; format: binding; conditions: CDK16/Y, read-out: Inhibition at 10µM (%)
CDK11A/Cyclin L2 = molecular target: T1, CDK11A/Cyclin L2 (Homo sapiens, UniProt Q9UQ88); assay: NanoBRET live-cell target engagement, CDK11A-NanoLuc/Cyclin L2 in HEK-293; format: binding; conditions: CDK11a/L2, read-out: Inhibition at 10µM (%)
T1 sequence (Q9UQ88 1-783): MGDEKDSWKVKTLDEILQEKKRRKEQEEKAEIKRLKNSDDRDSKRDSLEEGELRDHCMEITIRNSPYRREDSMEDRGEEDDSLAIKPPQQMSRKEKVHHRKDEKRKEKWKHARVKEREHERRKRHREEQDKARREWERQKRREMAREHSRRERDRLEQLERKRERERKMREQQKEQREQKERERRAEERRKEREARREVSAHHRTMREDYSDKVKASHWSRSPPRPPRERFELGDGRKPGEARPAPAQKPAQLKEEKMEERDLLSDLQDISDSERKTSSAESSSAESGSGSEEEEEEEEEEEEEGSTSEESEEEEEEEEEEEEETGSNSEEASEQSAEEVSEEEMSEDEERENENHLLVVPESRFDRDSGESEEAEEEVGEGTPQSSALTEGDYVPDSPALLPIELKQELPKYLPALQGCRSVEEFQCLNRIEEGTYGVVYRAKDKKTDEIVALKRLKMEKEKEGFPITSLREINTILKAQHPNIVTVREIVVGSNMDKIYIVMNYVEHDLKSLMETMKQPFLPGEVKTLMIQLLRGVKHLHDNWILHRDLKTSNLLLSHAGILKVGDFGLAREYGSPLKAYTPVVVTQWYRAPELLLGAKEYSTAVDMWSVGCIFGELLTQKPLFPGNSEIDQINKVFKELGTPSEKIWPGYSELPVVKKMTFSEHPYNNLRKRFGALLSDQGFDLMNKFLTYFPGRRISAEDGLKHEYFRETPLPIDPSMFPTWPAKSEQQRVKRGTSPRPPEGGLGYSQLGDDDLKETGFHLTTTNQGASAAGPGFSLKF

CDK13/Cyclin K = CDK13/Cyclin K (Homo sapiens, UniProt Q14004); assay: NanoBRET live-cell target engagement, CDK13-NanoLuc/Cyclin K in HEK-293; format: binding; conditions: CDK13/K, read-out: Inhibition at 10µM (%)
CDK20/Cyclin H = CDK20/Cyclin H (Homo sapiens, UniProt Q8IZL9); assay: NanoBRET live-cell target engagement, NanoLuc-CDK20/Cyclin H in HEK-293; format: binding; conditions: CDK20/H, read-out: Inhibition at 10µM (%)
CDK17/Cyclin Y = CDK17/Cyclin Y (Homo sapiens, UniProt Q00537); assay: NanoBRET live-cell target engagement, CDK17-NanoLuc/Cyclin Y in HEK-293; format: binding; conditions: CDK17/Y, read-out: Inhibition at 10µM (%)
CDK8/Cyclin C = CDK8/Cyclin C (Homo sapiens, UniProt P49336); assay: NanoBRET live-cell target engagement, NanoLuc-CDK8/Cyclin C in HEK-293; format: binding; conditions: CDK8/C, read-out: Inhibition at 10µM (%)
CDK5/CDK5R1 = CDK5/CDK5R1 (Homo sapiens, UniProt Q00535); assay: NanoBRET live-cell target engagement, CDK5-NanoLuc/CDK5R1 in HEK-293; format: binding; conditions: CDK5/CDK5R1, read-out: Inhibition at 10µM (%)
CDK10/Cyclin L2 = CDK10/Cyclin L2 (Homo sapiens, UniProt Q15131); assay: NanoBRET live-cell target engagement, CDK10-NanoLuc/Cyclin L2 in HEK-293; conditions: read-out: Inhibition at 10µM (%), CDK10/L2
CDK12/Cyclin K = CDK12/Cyclin K (Homo sapiens, UniProt Q9NYV4); assay: NanoBRET live-cell target engagement, CDK12-NanoLuc/Cyclin K in HEK-293; format: binding; conditions: CDK12/K, read-out: Inhibition at 10µM (%)
CDK14/Cyclin Y = CDK14/Cyclin Y (Homo sapiens, UniProt O94921); assay: NanoBRET live-cell target engagement, CDK14-NanoLuc/Cyclin Y in HEK-293; format: binding; conditions: CDK14/Y, read-out: Inhibition at 10µM (%)
CDK1/Cyclin E1 = CDK1/Cyclin E1 (Homo sapiens, UniProt P06493); assay: NanoBRET live-cell target engagement, CDK1-NanoLuc/Cyclin E1 in HEK-293; format: binding; conditions: CDK1/E1, read-out: Inhibition at 10µM (%)
CDK9/Cyclin K = CDK9/Cyclin K (Homo sapiens, UniProt P50750); assay: NanoBRET live-cell target engagement, NanoLuc-CDK9/Cyclin K in HEK-293; format: binding; conditions: CDK9/K, read-out: Inhibition at 10µM (%)
CDK19/Cyclin C = CDK19/Cyclin C (Homo sapiens, UniProt Q9BWU1); assay: NanoBRET live-cell target engagement, NanoLuc-CDK19/Cyclin C in HEK-293; conditions: read-out: Inhibition at 10µM (%), CDK19/C
CDK3/Cyclin E1 = CDK3/Cyclin E1 (Homo sapiens, UniProt Q00526); assay: NanoBRET live-cell target engagement, CDK3-NanoLuc/Cyclin E1 in HEK-293; format: binding; conditions: CDK3/E1, read-out: Inhibition at 10µM (%)

Chain of CDK17/Cyclin Y (Q00537 whole entry): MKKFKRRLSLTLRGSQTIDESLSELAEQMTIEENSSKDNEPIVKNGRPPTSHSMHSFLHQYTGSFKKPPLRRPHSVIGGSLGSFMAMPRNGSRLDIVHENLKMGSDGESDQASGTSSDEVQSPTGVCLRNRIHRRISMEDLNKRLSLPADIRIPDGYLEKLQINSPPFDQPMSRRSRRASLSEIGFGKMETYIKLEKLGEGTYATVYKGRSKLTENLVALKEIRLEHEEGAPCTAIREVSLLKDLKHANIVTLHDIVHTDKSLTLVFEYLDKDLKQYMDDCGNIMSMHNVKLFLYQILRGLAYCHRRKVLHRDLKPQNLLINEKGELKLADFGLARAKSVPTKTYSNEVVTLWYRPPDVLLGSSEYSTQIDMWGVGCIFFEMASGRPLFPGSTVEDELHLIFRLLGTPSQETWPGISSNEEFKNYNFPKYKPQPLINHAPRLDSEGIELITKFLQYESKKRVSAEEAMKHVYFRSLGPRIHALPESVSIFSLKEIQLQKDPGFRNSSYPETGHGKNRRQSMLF
Chain of CDK17/Cyclin Y (Q8ND76 whole entry partner): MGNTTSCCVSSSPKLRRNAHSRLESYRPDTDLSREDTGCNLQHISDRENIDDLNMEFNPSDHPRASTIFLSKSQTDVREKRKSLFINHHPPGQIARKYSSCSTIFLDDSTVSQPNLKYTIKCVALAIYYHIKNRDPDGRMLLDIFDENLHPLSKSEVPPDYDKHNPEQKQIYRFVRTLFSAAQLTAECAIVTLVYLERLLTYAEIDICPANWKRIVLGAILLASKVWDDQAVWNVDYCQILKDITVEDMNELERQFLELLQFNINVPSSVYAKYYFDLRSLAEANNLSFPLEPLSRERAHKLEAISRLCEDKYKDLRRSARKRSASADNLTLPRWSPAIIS
Chain of CDK19/Cyclin C (Q9BWU1 whole entry): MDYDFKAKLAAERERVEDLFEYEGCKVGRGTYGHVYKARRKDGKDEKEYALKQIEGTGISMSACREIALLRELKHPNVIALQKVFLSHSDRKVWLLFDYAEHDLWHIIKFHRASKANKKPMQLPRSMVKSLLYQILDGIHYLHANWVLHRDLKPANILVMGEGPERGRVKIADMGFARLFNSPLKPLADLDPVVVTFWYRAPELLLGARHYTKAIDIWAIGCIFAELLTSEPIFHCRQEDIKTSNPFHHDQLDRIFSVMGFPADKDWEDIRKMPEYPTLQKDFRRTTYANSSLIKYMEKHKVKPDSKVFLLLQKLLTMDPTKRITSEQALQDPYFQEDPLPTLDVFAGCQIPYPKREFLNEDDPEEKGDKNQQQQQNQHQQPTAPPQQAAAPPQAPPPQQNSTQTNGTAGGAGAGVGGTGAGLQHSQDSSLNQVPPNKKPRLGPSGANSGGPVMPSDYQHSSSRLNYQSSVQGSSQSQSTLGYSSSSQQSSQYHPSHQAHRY
Chain of CDK19/Cyclin C (P24863 whole entry partner): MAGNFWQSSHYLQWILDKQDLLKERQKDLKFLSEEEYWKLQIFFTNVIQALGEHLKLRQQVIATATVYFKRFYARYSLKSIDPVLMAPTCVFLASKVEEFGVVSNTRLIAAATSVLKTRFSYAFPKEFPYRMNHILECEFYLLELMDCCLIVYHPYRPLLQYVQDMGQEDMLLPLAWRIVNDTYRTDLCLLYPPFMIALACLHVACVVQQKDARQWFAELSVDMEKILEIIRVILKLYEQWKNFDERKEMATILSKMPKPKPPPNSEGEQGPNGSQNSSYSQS
Chain of CDK12/Cyclin K (Q9NYV4 1-1481 isoform Q9NYV4-2): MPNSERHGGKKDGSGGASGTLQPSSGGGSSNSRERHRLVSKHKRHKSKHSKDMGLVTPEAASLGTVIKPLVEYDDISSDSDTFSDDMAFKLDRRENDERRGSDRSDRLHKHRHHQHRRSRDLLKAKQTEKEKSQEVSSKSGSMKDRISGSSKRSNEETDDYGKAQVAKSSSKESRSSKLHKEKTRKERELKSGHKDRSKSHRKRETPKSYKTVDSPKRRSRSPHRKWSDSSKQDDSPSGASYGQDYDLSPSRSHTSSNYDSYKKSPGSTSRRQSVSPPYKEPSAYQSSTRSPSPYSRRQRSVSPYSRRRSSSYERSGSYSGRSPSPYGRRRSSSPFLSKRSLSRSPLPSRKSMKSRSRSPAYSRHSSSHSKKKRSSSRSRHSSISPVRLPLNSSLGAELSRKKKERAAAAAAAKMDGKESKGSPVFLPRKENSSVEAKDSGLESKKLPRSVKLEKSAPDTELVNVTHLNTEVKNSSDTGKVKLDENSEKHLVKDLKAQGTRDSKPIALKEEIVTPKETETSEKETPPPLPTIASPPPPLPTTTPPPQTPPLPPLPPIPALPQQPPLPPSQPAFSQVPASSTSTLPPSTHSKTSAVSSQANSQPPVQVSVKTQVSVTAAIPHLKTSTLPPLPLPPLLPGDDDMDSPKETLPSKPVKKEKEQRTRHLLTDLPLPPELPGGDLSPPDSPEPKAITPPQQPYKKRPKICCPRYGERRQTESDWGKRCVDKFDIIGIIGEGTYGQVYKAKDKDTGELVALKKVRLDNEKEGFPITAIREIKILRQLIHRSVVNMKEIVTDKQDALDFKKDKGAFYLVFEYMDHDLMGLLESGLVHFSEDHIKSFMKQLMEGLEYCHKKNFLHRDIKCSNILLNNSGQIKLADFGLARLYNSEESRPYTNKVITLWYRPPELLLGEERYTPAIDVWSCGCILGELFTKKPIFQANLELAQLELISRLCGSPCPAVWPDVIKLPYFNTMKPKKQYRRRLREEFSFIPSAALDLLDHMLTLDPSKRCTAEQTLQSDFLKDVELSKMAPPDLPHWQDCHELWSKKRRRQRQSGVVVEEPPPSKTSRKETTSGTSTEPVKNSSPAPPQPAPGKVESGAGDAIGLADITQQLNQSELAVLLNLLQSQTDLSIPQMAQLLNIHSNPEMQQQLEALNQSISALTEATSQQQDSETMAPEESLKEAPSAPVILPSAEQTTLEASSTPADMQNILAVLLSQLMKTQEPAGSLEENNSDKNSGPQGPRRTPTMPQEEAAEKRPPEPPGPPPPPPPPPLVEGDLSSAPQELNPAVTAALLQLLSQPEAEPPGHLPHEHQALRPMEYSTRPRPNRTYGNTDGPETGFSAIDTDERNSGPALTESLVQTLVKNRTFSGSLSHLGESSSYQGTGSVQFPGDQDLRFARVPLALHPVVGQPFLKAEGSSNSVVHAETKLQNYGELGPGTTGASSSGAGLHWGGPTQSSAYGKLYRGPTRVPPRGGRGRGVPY
Chain of CDK12/Cyclin K (O75909 whole entry partner): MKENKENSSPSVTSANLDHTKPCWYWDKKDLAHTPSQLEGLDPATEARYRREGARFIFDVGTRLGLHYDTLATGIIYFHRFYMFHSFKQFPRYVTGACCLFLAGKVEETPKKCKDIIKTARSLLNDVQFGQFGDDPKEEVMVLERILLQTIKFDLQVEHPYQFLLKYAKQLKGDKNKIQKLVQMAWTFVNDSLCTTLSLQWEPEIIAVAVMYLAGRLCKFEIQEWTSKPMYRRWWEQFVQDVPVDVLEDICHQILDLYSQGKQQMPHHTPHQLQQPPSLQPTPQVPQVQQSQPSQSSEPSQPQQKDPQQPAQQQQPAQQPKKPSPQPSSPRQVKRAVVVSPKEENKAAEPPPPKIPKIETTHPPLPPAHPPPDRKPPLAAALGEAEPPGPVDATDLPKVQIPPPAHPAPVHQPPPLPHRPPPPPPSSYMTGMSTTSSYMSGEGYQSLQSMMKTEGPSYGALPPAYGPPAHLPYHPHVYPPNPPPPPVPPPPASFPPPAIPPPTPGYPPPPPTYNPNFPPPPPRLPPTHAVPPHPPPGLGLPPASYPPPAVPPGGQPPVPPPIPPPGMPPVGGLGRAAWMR
Chain of CDK4/Cyclin D1 (P11802 whole entry): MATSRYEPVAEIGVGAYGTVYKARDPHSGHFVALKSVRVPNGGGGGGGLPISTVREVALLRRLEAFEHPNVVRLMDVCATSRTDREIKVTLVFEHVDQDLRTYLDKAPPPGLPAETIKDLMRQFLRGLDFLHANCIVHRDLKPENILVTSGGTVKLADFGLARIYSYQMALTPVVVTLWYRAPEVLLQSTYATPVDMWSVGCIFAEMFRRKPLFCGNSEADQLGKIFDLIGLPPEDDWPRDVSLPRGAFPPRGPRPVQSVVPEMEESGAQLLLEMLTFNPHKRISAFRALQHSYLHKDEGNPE
Chain of CDK4/Cyclin D1 (P24385 whole entry partner): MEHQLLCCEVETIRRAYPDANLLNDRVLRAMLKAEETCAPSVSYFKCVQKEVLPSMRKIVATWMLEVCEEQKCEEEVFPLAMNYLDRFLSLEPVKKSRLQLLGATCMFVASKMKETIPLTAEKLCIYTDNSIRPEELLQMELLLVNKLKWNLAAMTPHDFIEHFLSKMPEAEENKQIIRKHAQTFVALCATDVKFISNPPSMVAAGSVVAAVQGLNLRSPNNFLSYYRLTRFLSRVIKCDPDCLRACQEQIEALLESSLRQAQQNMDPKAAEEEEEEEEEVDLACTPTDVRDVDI
Chain of CDK7 (P50613 whole entry): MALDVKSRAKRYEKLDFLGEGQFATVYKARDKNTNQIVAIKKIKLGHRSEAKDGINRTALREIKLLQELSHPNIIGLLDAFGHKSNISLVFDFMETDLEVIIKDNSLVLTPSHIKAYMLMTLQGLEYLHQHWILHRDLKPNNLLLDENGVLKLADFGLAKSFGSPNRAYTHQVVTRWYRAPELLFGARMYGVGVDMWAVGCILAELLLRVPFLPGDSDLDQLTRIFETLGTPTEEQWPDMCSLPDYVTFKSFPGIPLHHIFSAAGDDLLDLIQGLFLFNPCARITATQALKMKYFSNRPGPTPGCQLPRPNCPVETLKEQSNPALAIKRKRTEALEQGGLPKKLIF

CC(C)N1CCN(c2ccc(Nc3ncc4cc5n(c4n3)C3(CCCCC3)CNC5=O)nc2)CC1 [Lerociclib]
inhibition at 10 µM (CDK15/Cyclin Y; average): 14.9%
inhibition at 10 µM (CDK15/Cyclin Y; experiment 1): 5%
inhibition at 10 µM (CDK15/Cyclin Y; experiment 2): 24.7%
inhibition at 10 µM (CDK7; average): 35.1%
inhibition at 10 µM (CDK7; experiment 1): 12.3%
inhibition at 10 µM (CDK7; experiment 2): 58%
inhibition at 10 µM (CDK4/Cyclin D1; average): 93.4%
inhibition at 10 µM (CDK4/Cyclin D1; experiment 1): 96.8%
inhibition at 10 µM (CDK4/Cyclin D1; experiment 2): 90.1%
inhibition at 10 µM (CDK2/Cyclin E1; average): -5.8%
inhibition at 10 µM (CDK2/Cyclin E1; experiment 1): -11%
inhibition at 10 µM (CDK2/Cyclin E1; experiment 2): -0.6%
inhibition at 10 µM (CDK11B/Cyclin L2; average): 16.1%
inhibition at 10 µM (CDK11B/Cyclin L2; experiment 1): 0.226%
inhibition at 10 µM (CDK11B/Cyclin L2; experiment 2): 32%
inhibition at 10 µM (CDK16/Cyclin Y; experiment 1): 77.1%
inhibition at 10 µM (CDK16/Cyclin Y; experiment 2): 32%
inhibition at 10 µM (CDK11A/Cyclin L2; average): 7.4%
inhibition at 10 µM (CDK11A/Cyclin L2; experiment 1): 2%
inhibition at 10 µM (CDK11A/Cyclin L2; experiment 2): 12.8%
inhibition at 10 µM (CDK13/Cyclin K; average): -0.247%
inhibition at 10 µM (CDK13/Cyclin K; experiment 1): 4.2%
inhibition at 10 µM (CDK13/Cyclin K; experiment 2): -4.7%
inhibition at 10 µM (CDK20/Cyclin H; experiment 1): 10.2%
inhibition at 10 µM (CDK20/Cyclin H; experiment 2): 7.2%
inhibition at 10 µM (CDK17/Cyclin Y; average): 58.5%
inhibition at 10 µM (CDK17/Cyclin Y; experiment 1): 75.6%
inhibition at 10 µM (CDK17/Cyclin Y; experiment 2): 41.4%
inhibition at 10 µM (CDK8/Cyclin C; average): 4.9%
inhibition at 10 µM (CDK8/Cyclin C; experiment 1): 6.7%
inhibition at 10 µM (CDK8/Cyclin C; experiment 2): 3%
inhibition at 10 µM (CDK5/CDK5R1; average): 12.2%
inhibition at 10 µM (CDK5/CDK5R1; experiment 1): 5.5%
inhibition at 10 µM (CDK5/CDK5R1; experiment 2): 18.9%
inhibition at 10 µM (CDK10/Cyclin L2; average): 7.8%
inhibition at 10 µM (CDK10/Cyclin L2; experiment 1): 9.5%
inhibition at 10 µM (CDK10/Cyclin L2; experiment 2): 6.2%
inhibition at 10 µM (CDK12/Cyclin K; average): 8.7%
inhibition at 10 µM (CDK12/Cyclin K; experiment 1): -0.9%
inhibition at 10 µM (CDK12/Cyclin K; experiment 2): 18.4%
inhibition at 10 µM (CDK14/Cyclin Y; average): 29.2%
inhibition at 10 µM (CDK14/Cyclin Y; experiment 1): 25.1%
inhibition at 10 µM (CDK14/Cyclin Y; experiment 2): 33.2%
inhibition at 10 µM (CDK1/Cyclin E1; average): 7.7%
inhibition at 10 µM (CDK1/Cyclin E1; experiment 1): 12.1%
inhibition at 10 µM (CDK1/Cyclin E1; experiment 2): 3.2%
inhibition at 10 µM (CDK9/Cyclin K; average): 29.3%
inhibition at 10 µM (CDK9/Cyclin K; experiment 1): 31%
inhibition at 10 µM (CDK9/Cyclin K; experiment 2): 27.6%
inhibition at 10 µM (CDK19/Cyclin C; average): 13%
inhibition at 10 µM (CDK19/Cyclin C; experiment 1): 7.9%
inhibition at 10 µM (CDK19/Cyclin C; experiment 2): 18.2%
inhibition at 10 µM (CDK3/Cyclin E1; average): 3.3%
inhibition at 10 µM (CDK3/Cyclin E1; experiment 1): 5%
inhibition at 10 µM (CDK3/Cyclin E1; experiment 2): 1.6%
